Results from US8445501B2, “Substituted 7-carboxamido-pyrrolo[3,2-d]pyrimidines” (Takeda GmbH, priority 2008, dated 2013).

The compounds below were run against T1, human PDE5 (Homo sapiens, UniProt O76074) (assay: Inhibition of the type 5 phosphodiesterase (PDE5) activity, modified SPA test with platelet lysate). Conditions: PDE5 from human platelet lysate, 0.5 μM cGMP.
T1 construct: from tissue; host or cells: platelets from fresh blood of human donors (lysate, 10,000 g supernatant)
Type: biochemical
Description: Method for Measuring Inhibition of the Type 5 Phosphodiesterase (PDE5) Activity:
As a source for human PDE5, platelets are used. For that purpose, 150 ml fresh blood from human donors anticoagulated with citrate [final concentration 0.3% (w/v)] is centrifuged at 200 g for 10 min to obtain the so-called platelet-rich-plasma (PRP) as a supernatant. 1/10 volume of ACD solution (85 mM Na3-citrate, 111 mM D-glucose, 71 mM citric acid, pH 4.4) is added to 9/10 volume of PRP. After centrifugation (1,400 g, 10 min) the cell pellet is resuspended in 3 ml homogenization buffer (NaCl 140 mM, KCl 3.8 mM, EGTA (ethylene glycol tetraacetic acid) 1 mM, MgCl2 1 mM, Tris-HCl 20 mM, beta-mercaptoethanol 1 mM, pH 8.2) plus protease-inhibitor mix giving rise to the final concentrations of 0.5 mM Pefablock (Roche), 10 μM Leupeptin, 5 μM Trypsininhibitor, 2 mM Benzamidin and 10 μM Pepstatin A. The suspension is sonified and thereafter centrifuged for 15 min at 10,000 g. The resulting supernatant (platelet lysate) is used for enzymatic testings.
PDE5A1 activity is inhibited by the compounds of the invention in a modified SPA (scintillation proximity assay) test, supplied by Amersham Biosciences (see procedural instructions “phosphodiesterase [3H]cAMP SPA enzyme assay, code TRKQ 7090”), carried out in 96-well microtitre plates (MTP's). The test volume is 100 μl and contains 20 mM Tris buffer (pH 7.4), 0.1 mg of BSA (bovine serum albumin)/ml, 5 mM Mg^2+, 1 μM motapizone, 10 nM PDE2 inhibitor 2-(3,4-dimethoxybenzyl)-7-[(1R,2R)-2-hydroxy-1-(2-phenylethyl)propyl]-5-methylimidazo[5,1-f][1,2,4]triazin-4(3H)-one, 0.5 μM cGMP (cyclic guanosine monophosphate) (including about 50,000 cpm of [3H]cGMP as a tracer), 1 μl of the respective compound dilution in dimethylsulfoxide (DMSO) and sufficient PDE5-containing platelet lysat (10,000×g supernatant, see above) to ensure that 10-20 wt % of the cGMP is converted under the said experimental conditions. […] After a preincubation of 5 min at 37° C., the reaction is started by adding the substrate (cGMP) and the assay is incubated for a further 15 min; after that, it is stopped by adding SPA beads (50 μl). In accordance with the manufacturer's instructions, the SPA beads had previously been resuspended in water, but are then diluted 1:3 (v/v) in water; the diluted solution also contains 3 mM […] (IBMX) to ensure a complete PDE activity stop. After the beads have been sedimented (>30 min), the MTP's are analyzed in commercially available luminescence detection de-vices. The corresponding IC50 values of the compounds for the inhibition of PDE activity are deter-mined from the concentration-effect curves by means of non-linear regression.
For “4-(2-Cyclopropylmethoxy-4-fluoro-5-methoxy-phenyl)-5H-pyrrolo[3,2-d]pyrimidine-7-carboxylic acid ((R)-1-acetyl-pyrrolidin-3-yl)-amide [Example 103]”, the “-log IC50 (mol/l)” value was 9.33.
In the case of “4-(5-Cyclopropylmethoxy-benzo[1,3]dioxol-4-yl)-5H-pyrrolo[3,2-d]pyrimidine-7-carboxylic acid ((R)-1-propionyl-piperidin-3-yl)-amide [Example 47]”, the “-log IC50 (mol/l)” value is reported as 9.64.
In the case of “4-({1-[4-(5-Cyclopropylmethoxy-benzo[1,3]dioxol-4-yl)-5H-pyrrolo[3,2-d]pyrimidin-7-yl]-methanoyl}-amino)-piperidine-1-carboxylic acid ethyl ester [Example 2]”, the “-log IC50 (mol/l)” value is reported as 10.01.
`CCC(=O)N1CCC(NC(=O)c2c[nH]c3c(-c4c(OCC5CC5)ccc5c4OCO5)ncnc23)CC1` [Example 1, 4-(5-Cyclopropylmethoxy-1,3-benzodioxol-4-yl)-5H-pyrrolo[3,2-d]pyrimidine-7-carboxylic acid (1-propionyl-piperidin-4-yl)-amide] showed an IC50 of 0.0776 nM.
`COCC(=O)N1CCC(NC(=O)c2c[nH]c3c(-c4c(OCC5CC5)ccc5c4OCO5)ncnc23)CC1` [Example 3, 4-(5-Cyclopropylmethoxy-benzo[1,3]dioxol-4-yl)-5H-pyrrolo[3,2-d]pyrimidine-7-carboxylic acid [1-(2-methoxy-acetyl)piperidin-4-yl]-amide] gave an IC50 of 0.398 nM.
In the case of `CC(=O)N[C@H]1CC[C@H](NC(=O)c2c[nH]c3c(-c4c(OCC5CC5)ccc5c4OCO5)ncnc23)CC1` [Example 4, trans-4-(5-Cyclopropylmethoxy-benzo[1,3]dioxol-4-yl)-5H-pyrrolo[3,2-d]pyrimidine-7-carboxylic acid (4-acetylamino-cyclohexyl)-amide], the IC50 is reported as 0.162 nM.
Work on `O=C(N[C@H]1CC[C@H](NC(=O)C2CC2)CC1)c1c[nH]c2c(-c3c(OCC4CC4)ccc4c3OCO4)ncnc12` [Example 5, trans-4-(5-Cyclopropylmethoxy-benzo[1,3]dioxol-4-yl)-5H-pyrrolo[3,2-d]pyrimidine-7-carboxylic acid {4-[(1-cyclopropyl-methanoyl)-amino]-cyclohexyl}-amide] yielded an IC50 of 0.123 nM.
Work on `CCOC(=O)N[C@H]1CC[C@H](NC(=O)c2c[nH]c3c(-c4c(OCC5CC5)ccc5c4OCO5)ncnc23)CC1` [Example 6, trans-[4-({1-[4-(5-Cyclopropylmethoxy-benzo[1,3]dioxol-4-yl)-5H-pyrrolo[3,2-d]pyrimidin-7-yl]-methanoyl}-amino)-cyclohexyl]-carbamic acid ethyl ester] yielded an IC50 of 0.0851 nM.
For `CC(=O)N[C@H]1CC[C@@H](NC(=O)c2c[nH]c3c(-c4c(OCC5CC5)ccc5c4OCO5)ncnc23)CC1` [Example 7, cis-4-(5-Cyclopropylmethoxy-benzo[1,3]dioxol-4-yl)-5H-pyrrolo[3,2-d]pyrimidine-7-carboxylic acid (4-acetylamino-cyclohexyl)-amide], the IC50 was 0.214 nM.
`O=C(N[C@H]1CC[C@@H](NC(=O)C2CC2)CC1)c1c[nH]c2c(-c3c(OCC4CC4)ccc4c3OCO4)ncnc12` [Example 8, cis-4-(5-Cyclopropylmethoxy-benzo[1,3]dioxol-4-yl)-5H-pyrrolo[3,2-d]pyrimidine-7-carboxylic acid {4-[(1-cyclopropyl-methanoyl)-amino]-cyclohexyl}-amide] was tested, and the IC50 was 0.224 nM.
With `COCC(=O)N[C@H]1CC[C@@H](NC(=O)c2c[nH]c3c(-c4c(OCC5CC5)ccc5c4OCO5)ncnc23)CC1` [Example 9, cis-4-(5-Cyclopropylmethoxy-benzo[1,3]dioxol-4-yl)-5H-pyrrolo[3,2-d]pyrimidine-7-carboxylic acid [4-(2-methoxy-ethanoylamino)-cyclohexyl]-amide] the IC50 was 1.15 nM.
Compound `CCOC(=O)N[C@H]1CC[C@@H](NC(=O)c2c[nH]c3c(-c4c(OCC5CC5)ccc5c4OCO5)ncnc23)CC1` [Example 10, cis-[4-({1-[4-(5-Cyclopropylmethoxy-benzo[1,3]dioxol-4-yl)-5H-pyrrolo[3,2-d]pyrimidin-7-yl]-methanoyl}-amino)-cyclohexyl]-carbamic acid ethyl ester] has an IC50 of 0.2 nM.
Work on `CC(=O)N1CCC(NC(=O)c2c[nH]c3c(-c4c(OCC5CC5)ccc5c4OCO5)ncnc23)CC1` [Example 11, 4-(5-Cyclopropylmethoxy-benzo[1,3]dioxol-4-yl)-5H-pyrrolo[3,2-d]pyrimidine-7-carboxylic acid (1-acetyl-piperidin-4-yl)-amide] yielded an IC50 of 0.145 nM.
For `O=C(NC1CCN(C(=O)C2CC2)CC1)c1c[nH]c2c(-c3c(OCC4CC4)ccc4c3OCO4)ncnc12` [Example 12, 4-(5-Cyclopropylmethoxy-benzo[1,3]dioxol-4-yl)-5H-pyrrolo[3,2-d]pyrimidine-7-carboxylic acid [1-(1-cyclopropyl-methanoyl)-piperidin-4-yl]amide], the IC50 was 0.0692 nM.
Work on `COCC(=O)N1CC[C@@H](NC(=O)c2c[nH]c3c(-c4c(OCC5CC5)ccc5c4OCO5)ncnc23)C1` [Example 13, 4-(5-Cyclopropylmethoxy-benzo[1,3]dioxol-4-yl)-5H-pyrrolo[3,2-d]pyrimidine-7-carboxylic acid [(R)-1-(2-methoxy-acetyl)pyrrolidin-3-yl]-amide] yielded an IC50 of 0.776 nM.
For `O=CN1CC[C@@H](NC(=O)c2c[nH]c3c(-c4c(OCC5CC5)ccc5c4OCO5)ncnc23)C1` [Example 14, 4-(5-Cyclopropylmethoxy-benzo[1,3]dioxol-4-yl)-5H-pyrrolo[3,2-d]pyrimidine-7-carboxylic acid ((R)-1-formyl-pyrrolidin-3-yl)-amide], the IC50 was 1.38 nM.
Work on `CC(=O)N1CC[C@@H](NC(=O)c2c[nH]c3c(-c4c(OCC5CC5)ccc5c4OCO5)ncnc23)C1` [Example 15, 4-(5-Cyclopropylmethoxy-benzo[1,3]dioxol-4-yl)-5H-pyrrolo[3,2-d]pyrimidine-7-carboxylic acid ((R)-1-acetyl-pyrrolidin-3-yl)-amide] yielded an IC50 of 1 nM.
Work on `O=C(N[C@@H]1CCN(C(=O)C2CC2)C1)c1c[nH]c2c(-c3c(OCC4CC4)ccc4c3OCO4)ncnc12` [Example 16, 4-(5-Cyclopropylmethoxy-benzo[1,3]dioxol-4-yl)-5H-pyrrolo[3,2-d]pyrimidine-7-carboxylic acid [(R)-1-(1-cyclopropyl-methanoyl)-pyrrolidin-3-yl]amide] yielded an IC50 of 0.389 nM.
`CCOC(=O)N1CC[C@@H](NC(=O)c2c[nH]c3c(-c4c(OCC5CC5)ccc5c4OCO5)ncnc23)C1` [Example 17, (R)-3-({1-[4-(5-Cyclopropylmethoxy-benzo[1,3]dioxol-4-yl)-5H-pyrrolo[3,2-d]pyrimidin-7-yl]-methanoyl}-amino)-pyrrolidine-1-carboxylic acid ethyl ester] showed an IC50 of 0.339 nM.
In the case of `O=CN1CC[C@H](NC(=O)c2c[nH]c3c(-c4c(OCC5CC5)ccc5c4OCO5)ncnc23)C1` [Example 18, 4-(5-Cyclopropylmethoxy-benzo[1,3]dioxol-4-yl)-5H-pyrrolo[3,2-d]pyrimidine-7-carboxylic acid ((S)-1-formyl-pyrrolidin-3-yl)-amide], the IC50 is reported as 1.82 nM.
`CC(=O)N1CC[C@H](NC(=O)c2c[nH]c3c(-c4c(OCC5CC5)ccc5c4OCO5)ncnc23)C1` [Example 19, 4-(5-Cyclopropylmethoxy-benzo[1,3]dioxol-4-yl)-5H-pyrrolo[3,2-d]pyrimidine-7-carboxylic acid ((S)-1-acetyl-pyrrolidin-3-yl)-amide] was tested, and the IC50 was 2.45 nM.
In the case of `O=C(N[C@H]1CCN(C(=O)C2CC2)C1)c1c[nH]c2c(-c3c(OCC4CC4)ccc4c3OCO4)ncnc12` [Example 20, 4-(5-Cyclopropylmethoxy-benzo[1,3]dioxol-4-yl)-5H-pyrrolo[3,2-d]pyrimidine-7-carboxylic acid [(S)-1-(1-cyclopropyl-methanoyl)-pyrrolidin-3-yl]amide], the IC50 is reported as 0.537 nM.
`COCC(=O)N1CC[C@H](NC(=O)c2c[nH]c3c(-c4c(OCC5CC5)ccc5c4OCO5)ncnc23)C1` [Example 21, 4-(5-Cyclopropylmethoxy-benzo[1,3]dioxol-4-yl)-5H-pyrrolo[3,2-d]pyrimidine-7-carboxylic acid [(S)-1-(2-methoxy-ethanoyl)-pyrrolidin-3-yl]amide] was tested, and the IC50 was 1.82 nM.
